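Protocol summary: plate cells (96-well), add compound at 5 concentrations, incubate 48 h, interpolate endpoints linearly. The concentration for 50% growth inhibition is given as GI50.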 Active and inactive are the calls of the source. No stated cut-off is given here; in the data, active = GI50 up to about 1.1 µM and inactive = higher.
How the values were obtained:
Assay in all cases: NCI tumour cell line growth inhibition, 48 h
ACHN = system: ACHN
OVCAR-5 = system: OVCAR-5
SR = system: SR
MCF7 = system: MCF7
HOP-92 = system: HOP-92
HT-29 = system: HT-29
NCI-H460 = system: NCI-H460
OVCAR-3 = system: OVCAR-3
U-251 = system: U-251
SNB-19 = system: SNB-19
NCI/ADR-RES = system: NCI/ADR-RES
HCC 2998 = system: HCC 2998
UACC-62 = system: UACC-62
T47D = system: T47D
IGROV-1 = system: IGROV-1
MDA-MB-435 = system: MDA-MB-435
Malme-3M = system: Malme-3M
SK-MEL-28 = system: SK-MEL-28
PC-3 = system: PC-3
HCT-116 = system: HCT-116

Row | Compound | GI50 (ACHN) | GI50 (OVCAR-5) | GI50 (SR) | GI50 (MCF7) | GI50 (HOP-92) | GI50 (HT-29) | GI50 (NCI-H460) | GI50 (OVCAR-3) | GI50 (U-251) | GI50 (SNB-19) | GI50 (NCI/ADR-RES) | GI50 (HCC 2998) | GI50 (UACC-62) | GI50 (T47D) | GI50 (IGROV-1) | GI50 (MDA-MB-435) | GI50 (Malme-3M) | GI50 (SK-MEL-28) | GI50 (PC-3) | GI50 (HCT-116)
1 | CNC(=O)OCc1nc(SSC(C)(C)C)n(C)c1COC(=O)NC | 2.7 µM (inactive) | 10.4 µM (inactive) | 1.05 µM (active) | 4.3 µM (inactive) | 1.78 µM (inactive) | 5.56 µM (inactive) | 10.7 µM (inactive) | 2.1 µM (inactive) | 12.9 µM (inactive) | 18 µM (inactive) | 5.52 µM (inactive) | 8.91 µM (inactive) | 1.95 µM (inactive) | 2.81 µM (inactive) | 8.13 µM (inactive) | 4.83 µM (inactive) | 1.86 µM (inactive) | 1.84 µM (inactive) | 8.75 µM (inactive) | 1.72 µM (inactive)
2 | O=CC1C(Cl)=Nc2nc3ccccc3n2C1c1ccccc1 (stereo not given) | 17.4 µM (inactive) | 23.2 µM (inactive) | 0.861 µM (active) | 20.4 µM (inactive) | 10.4 µM (inactive) | 19.1 µM (inactive) | 55.2 µM (inactive) | 23.2 µM (inactive) | 18.2 µM (inactive) | 25.5 µM (inactive) | 24 µM (inactive) | 18.2 µM (inactive) | 24.7 µM (inactive) | 17.1 µM (inactive) | 15.9 µM (inactive) | 38.5 µM (inactive) | 23.9 µM (inactive) | 14.3 µM (inactive) | 17.3 µM (inactive) | 22.1 µM (inactive)
3 | COc1ccc(-c2cc3c(c4cc(OC)ccc24)C(=O)OC3=O)cc1 | > 100 µM (inactive) | > 100 µM (inactive) | > 100 µM (inactive) | > 100 µM (inactive) | 87.3 µM (inactive) | > 100 µM (inactive) | > 100 µM (inactive) | > 100 µM (inactive) | > 100 µM (inactive) | > 100 µM (inactive) | > 100 µM (inactive) | > 100 µM (inactive) | > 100 µM (inactive) | > 100 µM (inactive) | > 100 µM (inactive) | 68.4 µM (inactive) | > 100 µM (inactive) | > 100 µM (inactive) | > 100 µM (inactive) | > 100 µM (inactive)
4 | Cc1cc(S(=O)(=O)Nc2nnc3c4ccccc4cnn23)c(S)cc1Cl | > 100 µM (inactive) | > 100 µM (inactive) | > 100 µM (inactive) | > 67.3 µM (inactive) | > 49.9 µM (inactive) | > 100 µM (inactive) | 31.3 µM (inactive) | > 86.3 µM (inactive) | 29.9 µM (inactive) | 26.5 µM (inactive) | > 64.7 µM (inactive) | 42.2 µM (inactive) | 46.9 µM (inactive) | 74.1 µM (inactive) | 39.2 µM (inactive) | > 84.3 µM (inactive) | > 100 µM (inactive) | > 100 µM (inactive) | > 100 µM (inactive) | 58.2 µM (inactive)
5 | O=C(NC/C(Cl)=C/Cl)Nc1c2ccccc2nc2ccccc12 | 80.5 µM (inactive) | 99.3 µM (inactive) | 20.5 µM (inactive) | > 100 µM (inactive) | 41.6 µM (inactive) | 53.2 µM (inactive) | 60.3 µM (inactive) | 44.5 µM (inactive) | 70.8 µM (inactive) | > 100 µM (inactive) | 52 µM (inactive) | 86.3 µM (inactive) | > 100 µM (inactive) | 71.1 µM (inactive) | 35.5 µM (inactive) | > 100 µM (inactive) | > 100 µM (inactive) | > 100 µM (inactive) | > 100 µM (inactive) | 24.3 µM (inactive)
6 | CCc1ccc2c(c1)/C(=C1/Nc3ccccc3C1=O)C(=O)N2 | 5.66 µM (inactive) | 44.9 µM (inactive) | 14.1 µM (inactive) | 1.78 µM (inactive) | 33.3 µM (inactive) | 25.4 µM (inactive) | 23.3 µM (inactive) | 20.6 µM (inactive) | 13.5 µM (inactive) | 11 µM (inactive) | 28.7 µM (inactive) | 15.7 µM (inactive) | 15.4 µM (inactive) | 4.65 µM (inactive) | 0.124 µM (active) | 25.5 µM (inactive) | 35.4 µM (inactive) | 96.6 µM (inactive) | 14.5 µM (inactive) | 7.43 µM (inactive)
7 | COC(=O)C(NC(=O)CSc1nnc(COc2ccc(Cl)cc2)n1-c1ccccc1)C(C)C (stereo not given) | 39.3 µM (inactive) | 28.8 µM (inactive) | 1.08 µM (active) | 40.7 µM (inactive) | 21.6 µM (inactive) | 17 µM (inactive) | 33.2 µM (inactive) | 16.5 µM (inactive) | 51.4 µM (inactive) | 29.3 µM (inactive) | 22.6 µM (inactive) | 18.6 µM (inactive) | 17.8 µM (inactive) | 20.8 µM (inactive) | 16.3 µM (inactive) | 19.9 µM (inactive) | 16.5 µM (inactive) | 21.5 µM (inactive) | 21.7 µM (inactive) | 13 µM (inactive)
8 | COC(=O)c1c(C)cccc1C1CN=NC12Cc1ccc(C)cc1C2=O (stereo not given) | 26.9 µM (inactive) | > 100 µM (inactive) | 40.2 µM (inactive) | 37.2 µM (inactive) | 23.8 µM (inactive) | 31.8 µM (inactive) | 15 µM (inactive) | 38.6 µM (inactive) | 41.9 µM (inactive) | 38.1 µM (inactive) | 23 µM (inactive) | 40.9 µM (inactive) | 32.6 µM (inactive) | 17.1 µM (inactive) | 52 µM (inactive) | 32.7 µM (inactive) | 33.2 µM (inactive) | 43.4 µM (inactive) | 39.2 µM (inactive) | 25 µM (inactive)
9 | O=c1oc2ccccc2c(Nc2ccc3c(c2)S(=O)(=O)c2ccccc2O3)c1[N+](=O)[O-] | 22.1 µM (inactive) | 70 µM (inactive) | 22 µM (inactive) | 21.8 µM (inactive) | 20 µM (inactive) | 34.5 µM (inactive) | 25.5 µM (inactive) | 20.8 µM (inactive) | 19.7 µM (inactive) | 26.9 µM (inactive) | 34.4 µM (inactive) | 18.5 µM (inactive) | 14.5 µM (inactive) | 18.7 µM (inactive) | 21.6 µM (inactive) | 23.4 µM (inactive) | 23.5 µM (inactive) | 18.1 µM (inactive) | 21.5 µM (inactive) | 23.7 µM (inactive)
10 | O=C(NC(Cc1c[nH]c2ccccc12)C(=O)O)/C(=C/c1ccccc1)NC(=O)c1ccccc1 (stereo not given) | > 94.8 µM (inactive) | 56.1 µM (inactive) | > 100 µM (inactive) | 50 µM (inactive) | 23.9 µM (inactive) | 66.7 µM (inactive) | 68.1 µM (inactive) | 38.4 µM (inactive) | 46.8 µM (inactive) | > 92 µM (inactive) | 36.6 µM (inactive) | 78.3 µM (inactive) | 41.2 µM (inactive) | 36.2 µM (inactive) | 32.1 µM (inactive) | 78.9 µM (inactive) | 22.5 µM (inactive) | > 88.9 µM (inactive) | 50.5 µM (inactive) | > 80.4 µM (inactive)
11 | NNC(=O)C(O)C(O)C(O)CO (stereo not given) | > 100 µM (inactive) | > 100 µM (inactive) | 67.8 µM (inactive) | > 100 µM (inactive) | > 100 µM (inactive) | > 100 µM (inactive) | > 100 µM (inactive) | > 100 µM (inactive) | > 100 µM (inactive) | > 100 µM (inactive) | > 100 µM (inactive) | > 100 µM (inactive) | > 100 µM (inactive) | > 100 µM (inactive) | > 100 µM (inactive) | > 100 µM (inactive) | > 100 µM (inactive) | > 100 µM (inactive) | > 100 µM (inactive) | > 100 µM (inactive)
12 | O=C(CCC1CCCCN1)Nc1ccc2c(c1)C(=O)c1ccc(NC(=O)CCN3CCCCC3)cc1C2=O (stereo not given) | 1.45 µM (inactive) | 2.34 µM (inactive) | 0.493 µM (active) | > 10 µM (inactive) | 2 µM (inactive) | 2.52 µM (inactive) | 4.17 µM (inactive) | 2.37 µM (inactive) | 8.13 µM (inactive) | 7.19 µM (inactive) | > 10 µM (inactive) | > 10 µM (inactive) | 1.22 µM (inactive) | > 10 µM (inactive) | 6.82 µM (inactive) | > 10 µM (inactive) | 1.43 µM (inactive) | 1.7 µM (inactive) | > 10 µM (inactive) | 2.03 µM (inactive)
13 | COc1ccc(P2(=S)OCCOP(=S)(c3ccc(OC)cc3)S2)cc1 (stereo not given) | 5.98 µM (inactive) | > 100 µM (inactive) | 3.6 µM (inactive) | 3.62 µM (inactive) | 10.4 µM (inactive) | 2.64 µM (inactive) | 2.65 µM (inactive) | 2.52 µM (inactive) | 4.03 µM (inactive) | 3.71 µM (inactive) | 4.41 µM (inactive) | 2.87 µM (inactive) | 4.16 µM (inactive) | 41.8 µM (inactive) | 4.03 µM (inactive) | 1.39 µM (inactive) | 13.7 µM (inactive) | 18.4 µM (inactive) | 2.26 µM (inactive) | 3.28 µM (inactive)
14 | COc1cc(OCc2ccc3nc(-c4ccccc4)c(Cl)nc3c2)cc(OC)c1OC | 32.3 µM (inactive) | 77.1 µM (inactive) | > 100 µM (inactive) | 59.7 µM (inactive) | 8.71 µM (inactive) | > 100 µM (inactive) | 90.2 µM (inactive) | > 100 µM (inactive) | 16.5 µM (inactive) | 52.7 µM (inactive) | 58.1 µM (inactive) | > 100 µM (inactive) | 83.2 µM (inactive) | 93.8 µM (inactive) | 69.2 µM (inactive) | > 100 µM (inactive) | 26.3 µM (inactive) | > 100 µM (inactive) | > 100 µM (inactive) | 76.6 µM (inactive)

Reference: ChEMBL document CHEMBL1201862, “PubChem BioAssay data set” (2004)
